In patent US20140171431A1, “AZOLE HETEROCYCLIC COMPOUND, PREPARATION METHOD, PHARMACEUTICAL COMPOSITION AND USE” (priority 2011, published 2014):
Where two headings read alike, the source gives them in different places.

Tests used:
Lp-PLA2 in rabbit serum = target: T1, Lp-PLA2 in rabbit serum (Oryctolagus cuniculus, UniProt G1SE06); assay: In vitro inhibitory activity towards the enzyme Lp-PLA2 in rabbit serum, [3H]PAF substrate; type: biochemical; conditions: for inhibition at 0.1 µM: 100 nM
T1 construct: from tissue; host or cells: rabbit serum
T1 sequence (G1SE06 22-423): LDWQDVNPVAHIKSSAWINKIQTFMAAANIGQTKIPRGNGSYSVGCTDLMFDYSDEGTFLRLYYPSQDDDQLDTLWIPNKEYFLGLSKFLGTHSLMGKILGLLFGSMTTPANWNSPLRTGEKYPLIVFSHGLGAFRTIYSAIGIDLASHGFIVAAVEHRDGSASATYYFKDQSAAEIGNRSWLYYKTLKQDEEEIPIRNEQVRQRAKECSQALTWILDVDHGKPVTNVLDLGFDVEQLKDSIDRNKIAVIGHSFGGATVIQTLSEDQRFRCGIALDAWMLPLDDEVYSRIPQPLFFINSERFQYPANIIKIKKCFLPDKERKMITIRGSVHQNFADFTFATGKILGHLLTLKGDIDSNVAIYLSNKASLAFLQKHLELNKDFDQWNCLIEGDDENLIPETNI
Experimental: (§1) The activities of compounds were measured using [^3H] labeled platelet activating factor ([^3H]PAF, Perkinelmer, Lot NET910) as the substrate. The reaction was carried out in a system containing 50 mmol/L HEPES and 150 mmol/L NaCl (pH 7.4) in a total volume of 200 μl. First, 10 μL rabbit serum and 10 μl DMSO solution of the test compound were added to the system and preincubated for 10 min at 37° C. Then 20 nM [^3H]PAF was added as listed in table 1 to start the reaction and incubated for a further 10 min at 37° C. After that, 600 μl of CHCl3/MeOH (2:1) was added and the resulting mixture was vortex mixed and the reaction was stopped. After settled for a while, the mixture was centrifugated at 12000×g for 15 min. The supernatant was transferred to a new tube and 200 μl of CHCl3 was added. The mixture was mixed by vortexing and then settled or centrifugated for 2 min. A 100 μl portion of the supernatant was then collected for radioactivity intensity measurement.
The inhibition rate was determined by the following equation:
Inhibitory rate (%)=1−(DPMcompound tube−DPMblank tube)/(DPMcontrol tube−DPMblank tube)*100%
(Note: DPM is radioactivity intensity unit.)

Lp-PLA2 in human serum = target: T2, Lp-PLA2 in human serum (Homo sapiens, UniProt Q13093); assay: In vitro inhibitory activity towards the enzyme Lp-PLA2 in human serum, [3H]PAF substrate; type: biochemical; conditions: for inhibition at 0.01 µM: 10 nM; for inhibition at 0.1 µM: 100 nM
T2 construct: from tissue
T2 sequence (Q13093 22-441): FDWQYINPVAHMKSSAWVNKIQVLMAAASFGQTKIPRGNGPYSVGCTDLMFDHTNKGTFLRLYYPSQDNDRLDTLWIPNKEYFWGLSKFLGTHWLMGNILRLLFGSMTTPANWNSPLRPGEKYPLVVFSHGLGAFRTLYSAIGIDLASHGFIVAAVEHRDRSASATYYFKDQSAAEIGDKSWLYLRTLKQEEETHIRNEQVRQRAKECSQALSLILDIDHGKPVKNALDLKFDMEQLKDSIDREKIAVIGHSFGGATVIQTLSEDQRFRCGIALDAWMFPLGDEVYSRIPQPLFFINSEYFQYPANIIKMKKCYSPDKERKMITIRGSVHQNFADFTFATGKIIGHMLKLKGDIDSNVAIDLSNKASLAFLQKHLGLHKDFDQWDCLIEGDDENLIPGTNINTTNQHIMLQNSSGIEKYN
Experimental: as §1, with “mmol/l” for “mmol/L”, “human plasma” for “rabbit serum”, “was” for “was vortex”, “with vortex.” for “and the reaction was stopped.”, “added and mixed by vortexing.” for “added.”, “was” for “was mixed by vortexing and then”

[1] = rabbit serum, read-out: inhibition, %
[2] = human serum, read-out: inhibition, %
[3] = read-out: inhibitory rate towards the rabbit serum derived Lp-PLA2 enzyme
[4] = read-out: inhibitory rate towards the human serum derived Lp-PLA2 enzyme

Row | inhibition at 0.1 µM (Lp-PLA2 in rabbit serum; [1]) [%] | inhibition at 0.01 µM (Lp-PLA2 in human serum; [2]) [%] | inhibition at 0.1 µM (Lp-PLA2 in human serum; human serum) [%] | inhibition at 0.1 µM (Lp-PLA2 in rabbit serum; [3]) [%] | inhibition at 1 µM (Lp-PLA2 in rabbit serum; rabbit serum) [%] | inhibition at 0.01 µM (Lp-PLA2 in human serum; [4]) [%] | Compound
1 | 78.9 | 73 | 93 | – | – | – | Cc1nnc(Cn2c(SCc3ccc(F)cc3)nc(=O)c3c2CCC3)n1Cc1ccc(-c2ccc(C(F)(F)F)cc2)cc1 [Example 64, 2-(4-fluorobenzylthio)-1-((5-methyl-4-((4′-(trifluoromethyl)biphenyl-4-yl)methyl)-4H-1,2,4-triazol-3-yl)methyl)-6,7-dihydro-1H-cyclopenta[d]pyrimidin-4(5H)-one]
2 | 96.9 | 93 | 99 | > 90 | 98.6 | > 80 | C[N+](C)(Cc1ccc(F)cc1)Cc1cnc(Cn2c(SCc3ccc(F)cc3)nc(=O)c3c2CCC3)n1Cc1ccc(-c2ccc(C(F)(F)F)cc2)cc1 [Example 47, N-(4-fluorobenzyl)-1-(2-((2-(4-fluorobenzylthio)-4-oxo-4,5,6,7-tetrahydro-1H-cyclopenta[d]pyrimidin-1-yl)methyl)-1-((4′-(trifluoromethyl)biphenyl-4-yl)methyl)-1H-imidazol-5-yl)-N,N-dimethylmethanaminium bromide]
3 | 88.3 | 75 | 92 | – | 97.7 | – | CCN(CC)Cc1cnc(Cn2c(SCc3ccc(F)cc3)nc(=O)c3c2CCC3)n1Cc1ccc(-c2ccc(C(F)(F)F)cc2)cc1 [Example 42, 1-((5-((diethylamino)methyl)-1-((4′-(trifluoromethyl)biphenyl-4-yl)methyl)-1H-imidazol-2-yl)methyl)-2-(4-fluorobenzylthio)-6,7-dihydro-1H-cyclopenta[d]pyrimidin-4(5H)-one]
4 | 90 | 89 | 98 | > 90 | – | > 80 | CC(O)c1nnc(Cn2c(SCc3ccc(F)cc3)nc(=O)c3c2CCC3)n1Cc1ccc(-c2ccc(C(F)(F)F)cc2)cc1 (stereo not drawn) [Example 120, 2-(4-fluorobenzylthio)-1-((5-(1-hydroxyethyl)-4-((4′-(trifluoromethyl)biphenyl-4-yl)methyl)-4H-1,2,4-triazol-3-yl)methyl)-6,7-dihydro-1H-cyclopenta[d]pyrimidin-4(5H)-one]
5 | 78.6 | 67 | 92 | – | – | – | O=c1nc(SCc2ccc(F)cc2)n(Cc2ncc(CN3CCCC3)n2Cc2ccc(-c3ccc(C(F)(F)F)cc3)cc2)c2c1CCC2 [Example 43, 2-(4-fluorobenzylthio)-1-((5-(pyrrolidin-1-ylmethyl)-1-((4′-(trifluoromethyl)biphenyl-4-yl)methyl)-1H-imidazol-2-yl)methyl)-6,7-dihydro-1H-cyclopenta[d]pyrimidin-4(5H)-one]
6 | 76 | 69 | 91 | – | – | – | C[C@@H]1CN(Cc2nnc(Cn3c(SCc4ccc(F)cc4)nc(=O)c4c3CCC4)n2Cc2ccc(-c3ccc(C(F)(F)F)cc3)cc2)C[C@H](C)O1 [Example 84, 1-((5-(((2S,6R)-2,6-dimethylmorpholino)methyl)-4-((4′-(trifluoromethyl)biphenyl-4-yl)methyl)-4H-1,2,4-triazol-3-yl)methyl)-2-(4-fluorobenzylthio)-6,7-dihydro-1H-cyclopenta[d]pyrimidin-4(5H)-one]
7 | 89 | 96 | – | – | – | – | CCN(CC)Cc1onc(Cn2c(SCc3ccc(F)cc3)nc(=O)c3c2CCC3)c1Cc1ccc(-c2ccc(C(F)(F)F)cc2)cc1 [Example 157, 1-((5-((diethylamino)methyl)-4-((4′-(trifluoromethyl)biphenyl-4-yl)methyl)isoxazol-3-yl)methyl)-2-(4-fluorobenzylthio)-6,7-dihydro-1H-cyclopenta[d]pyrimidin-4(5H)-one]
8 | 90 | 97 | 99 | > 90 | – | > 80 | CN(C)C(=O)c1cnc(Cn2c(SCc3ccc(F)cc3)nc(=O)c3c2CCC3)n1Cc1ccc(-c2ccc(C(F)(F)F)cc2)cc1 [Example 52, 2-((2-(4-fluorobenzylthio)-4-oxo-4,5,6,7-tetrahydro-1H-cyclopenta[d]pyrimidin-1-yl)methyl)-N,N-dimethyl-1-((4′-(trifluoromethyl)biphenyl-4-yl)methyl)-1H-imid azole-5-carboxamide]
9 | 61 | 59 | 91 | – | – | – | O=c1nc(SCc2ccc(F)cc2)n(Cc2ncn(Cc3ccc(-c4ccc(C(F)(F)F)cc4)cc3)n2)c2c1CCC2 [Example 61, 2-(4-fluorobenzylthio)-1-((1-((4′-(trifluoromethyl)biphenyl-4-yl)methyl)-1H-1,2,4-triazol-3-yl)methyl)-6,7-dihydro-1H-cyclopenta[d]pyrimidin-4(5H)-one]
10 | 93 | 81 | 95 | > 90 | – | > 80 | CCN1CCCC1CNCc1nnc(Cn2c(SCc3ccc(F)cc3)nc(=O)c3c2CCC3)n1Cc1ccc(-c2ccc(C(F)(F)F)cc2)cc1 (racemic) [Example 83, (±)-1-((5-(((1-ethylpyrrolidin-2-yl)methylamino)methyl)-4-((4′-(trifluoromethyl)biphenyl-4-yl)methyl)-4H-1,2,4-triazol-3-yl)methyl)-2-(4-fluorobenzylthio)-6,7-dihydro-1H-cyclopenta[d]pyrimidin-4(5H)-one]
11 | 80 | 67 | 92 | – | – | – | O=c1nc(SCc2ccc(F)cc2)n(Cc2nnc(/C=N/N3CCCCC3)n2Cc2ccc(-c3ccc(C(F)(F)F)cc3)cc2)c2c1CCC2 [Example 117, (E)-2-(4-fluorobenzylthio)-1-((5-((piperidin-1-ylimino)methyl)-4-((4′-(trifluoromethyl)biphenyl-4-yl)methyl)-4H-1,2,4-triazol-3-yl)methyl)-6,7-dihydro-1H-cyclopenta[d]pyrimidin-4(5H)-one]
12 | 88.3 | 85 | 97 | – | – | – | CN(C)Cc1nnc(Cn2c(SCc3ccc(F)cc3)nc(=O)c3c2CCC3)n1Cc1ccc(-c2ccc(C(F)(F)F)cc2)cc1 [Example 75, 1-((5-((dimethylamino)methyl)-4-((4′-(trifluoromethyl)biphenyl-4-yl)methyl)-4H-1,2,4-triazol-3-yl)methyl)-2-(4-fluorobenzylthio)-6,7-dihydro-1H-cyclopenta[d]pyrimidin-4(5H)-one]
13 | 88 | 88 | 98 | – | – | – | CCCc1nnc(Cn2c(SCc3ccc(F)cc3)nc(=O)c3c2CCC3)n1Cc1ccc(-c2ccc(C(F)(F)F)cc2)cc1 [Example 66, 2-(4-fluorobenzylthio)-1-((5-propyl-4-((4′-(trifluoromethyl)biphenyl-4-yl)methyl)-4H-1,2,4-triazol-3-yl)methyl)-6,7-dihydro-1H-cyclopenta[d]pyrimidin-4(5H)-one]
